In patent US6495550B2, “Pyridine-substituted benzanilides as potassium ion channel openers” (ICAgen, Inc., priority 1999, dated 2002) one finds melting point data, which are given here for 27 molecules.

With `O=C(Nc1ccc(Cl)nc1)c1ccc(Cl)c(Cl)c1` [Compound 2, 3,4-Dichloro-N-(6-chloro-pyridin-3-yl)-benzamide], the melting point (in general, the temperature of the solid-liquid transition) lay in the range of 188 to 189 °C. Regarding `O=C(Nc1ccc(Cl)nc1)c1cccc(C(F)(F)F)c1` [Compound 3, N-(6-Chloro-pyridin-3-yl)-3-trifluoromethyl-benzamide], the melting point fell in the range of 139 to 140 °C. Under `O=C(Nc1ccc(Cl)nc1)c1cccc(Cl)c1` [Compound 5, 3-Chloro-N-(6-chloro-pyridin-3-yl)-benzamide] stands 153 to 154 °C.

For `O=C(Nc1ccc(Cl)nc1)c1ccc(-c2ccccc2)cc1` [Compound 6, Biphenyl-4-carboxylic acid (6-chloro-pyridin-3-yl)-amide], the melting point was in the range of 227 to 229 °C.

`O=C(Nc1ccc(Cl)nc1)c1ccc(Cl)nc1` [Compound 7, 6-Chloro-N-(6-chloro-pyridin-3-yl)-nicotinamide] returned a melting point of 228 °C. The result for `O=C(Nc1ccc(Cl)nc1)c1cccc(F)c1` [Compound 9, N-(6-Chloro-pyridin-3-yl)-3-fluoro-benzamide] reads 160 °C; that for `O=C(Nc1ccc(Cl)nc1)c1cccc(C(F)(F)F)c1` [Compound 10, N-(6-Chloro-pyridin-3-yl)-3-(trifluoromethyl)-benzamide], 169 to 170 °C; that for `O=C(Nc1ccc(Cl)nc1)c1ccc(C(F)(F)F)c(F)c1` [Compound 12, N-(6-Chloro-pyridin-3-yl)-3-fluoro-4-trifluoromethyl-benzamide], 182 °C. Regarding `O=C(Nc1ccc(Cl)nc1)c1ccc(Cl)cc1` [Compound 14, N-(6-Chloro-pyridin-3-yl)-4-chloro-benzamide], the melting point lay within 197 to 199 °C. For `O=C(Nc1ccc(F)nc1)c1cnc(F)c(F)c1` [Compound 15, 5,6-Difluoro-N-(6-fluoro-pyridin-3-yl)-nicotinamide], the melting point fell in the range of 135 to 137 °C.

Molecule `Cc1cc(C(=O)Nc2ccc(Cl)nc2)ccc1[N+](=O)[O-]` [Compound 16, N-(6-Chloro-pyridin-3-yl)-3-methyl-4-nitro-benzamide] had a melting point of 192 to 193 °C. The result for `O=C(Nc1ccc(Cl)nc1)c1cc2cc(F)ccc2[nH]1` [Compound 17, 5-Fluoro-1 H-indole-2-carboxylic acid (6-chloro-pyridin-3-yl)-amide] reads 290 °C; that for `O=C(Nc1ccc(Cl)nc1)c1cc2cc(Cl)ccc2[nH]1` [Compound 18, 5-Chloro-1 H-indole-2-carboxylic acid (6-chloro-pyridin-3-yl)-amide], 296 °C; that for `O=C(Nc1ccc(Cl)nc1)c1cc2cc(Cl)ccc2o1` [Compound 19, 5-Chloro-benzofuran-2-carboxylic acid (6-chloro-pyridin-3-yl)-amide], 222 to 223 °C.

With `O=C(Nc1ccc(Cl)nc1)c1ccc(Cl)s1` [Compound 20, 5-Chloro-thiophene-2-carboxylic acid (6-chloro-pyridin-3-yl)-amide], the melting point was 215 to 216 °C.

Consider `O=C(Nc1ccc(Cl)nc1)c1ccc(Cl)o1` [Compound 21, 5-Chloro-furan-2-carboxylic acid (6-chloro-pyridin-3-yl)-amide], for which the melting point is 143 to 144 °C. `Cc1c(C(=O)Nc2ccc(Cl)nc2)[nH]c2ccccc12` [Compound 23, 3-Methyl-1 H-indole-2-carboxylic acid (6-chloro-pyridin-3-yl)-amide] registered a melting point of 184 to 185 °C. The result for `CCc1ccc2[nH]c(C(=O)Nc3ccc(Cl)nc3)cc2c1` [Compound 24, 5-Ethyl-1 H-indole-2-carboxylic acid (6-chloro-pyridin-3-yl)-amide] reads 270 °C; that for `O=C(Nc1ccc(Cl)nc1)c1ccccc1` [Compound 25, N-(6-Chloro-pyridin-3-yl)-benzamide], 163 to 164 °C.

The molecule `O=C(Nc1ccc(Cl)nc1)c1cc2ccccc2[nH]1` [Compound 26, 1H-Indole-2-carboxylic acid (6-chloro-pyridin-3-yl)-amide] came in with a melting point of 260 to 263 °C.

Molecule `O=C(Nc1ccc(Cl)nc1)c1ccc(N2CCOCC2)c(F)c1` [Compound 31, N-(6-Chloro-pyridin-3-yl)-3-fluoro-4-morpholin-4-yl-benzamide] gave a melting point of 228 to 229 °C. The result for `O=C(Nc1ccc(Cl)nc1)c1ccc(NCc2ccccn2)c(F)c1` [Compound 33, N-(6-Chloro-pyridin-3-yl)-3-fluoro-4-[(pyridin-2-ylmethyl)-amino]-benzamide] reads 210 to 211 °C; that for `CN(C)c1ccc(C(=O)Nc2ccc(Cl)nc2)cc1F` [Compound 34, N-(6-Chloro-pyridin-3-yl)-4-dimethylamino-3-fluoro-benzamide], 170 to 171 °C; that for `O=C(Nc1ccc(Cl)nc1)c1ccc(NC(=O)c2ccccn2)cc1` [Compound 35, Pyridine-2-carboxylic acid [4-(6-chloro-pyridin-3-ylcarbamoyl)-phenyl]-amide], 258 to 260 °C. `O=C(Nc1ccc(Cl)nc1)c1ccc([N+](=O)[O-])c(F)c1` [Compound 37, N-(6-Chloro-pyridin-3-yl)-3-fluoro-4-nitro-benzamide]: the melting point amounted to 205 °C. The result for `Nc1ccc(C(=O)Nc2ccc(Cl)nc2)cc1F` [Compound 41, 4-Amino-N-(6-chloro-pyridin-3-yl)-3-fluoro-benzamide] reads 193 °C; that for `O=C(Nc1ccc(Cl)nc1)c1ccc([N+](=O)[O-])cc1` [Compound 42, N-(6-Chloro-pyridin-3-yl)-4-nitro-benzamide], 193 °C.
